# According to patent US12195427B2, “MASP-2 inhibitors and methods of use” (priority 2018, dated 2025):
# Molecular target: MASP-2 CCP2-SP (Homo sapiens (Human), UniProt O00187)
# Test: MASP-2 co-crystallization, X-ray crystallography and structure analysis (H-bonds, van der Waals contacts);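 as to Ligand-pharmacophore element distance, pharmacophore element C2: distance from averaged pharmacophore element to bound ligand; missing value means element absent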;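 as to Ligand-pharmacophore element distance, pharmacophore element C3: distance from averaged pharmacophore element to bound ligand; missing value means element absent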;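 as to Ligand-pharmacophore element distance, pharmacophore element C4: distance from averaged pharmacophore element to bound ligand; missing value means element absent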;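 as to Ligand-pharmacophore element distance, pharmacophore element C5: distance from averaged pharmacophore element to bound ligand; missing value means element absent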
# Set-up: van der Waals contact distance, MASP-2 HIS 483 atom CD2 / van der Waals contact distance, MASP-2 HIS 483 atom NE2 / van der Waals contact distance, SER 654 C to compound atom / van der Waals contact distance, SER 654 O to compound atom / van der Waals contact distance, TRP 655 C to compound atom / van der Waals contact distance, MASP-2 GLY 528 atom CA / van der Waals contact distance TRP 655 atom CZ3 / van der Waals contact distance TRP 655 atom N / van der Waals contact distance TRP 655 atom CE3 / van der Waals contact distance GLY 656 atom C / van der Waals contact distance GLY 656 atom CA / van der Waals contact distance GLY 656 atom O / van der Waals contact distance, MASP-2 TYR 607 atom CD1 / van der Waals contact distance, MASP-2 PRO 606 atom O / d(C3,CA1) / d(CA1,N1)2 / d(H4,O1) / d(H4,O2) / d(O1,O2) / d(CA1,O2) / d(CA6,O1) / d(CA6,O2) / d(CA1,C5) / d(O2,H3) / d(N2,C2) / d(CA5,N2) / d(N2,C4) / d(N2,C6) / d(N2,CA3) / d(N2,O3) / d(O4,H2): unit not given beside the values
# Conditions: for Ligand-pharmacophore element distance, pharmacophore element C2 / Ligand-pharmacophore element distance, pharmacophore element C3 / Ligand-pharmacophore element distance, pharmacophore element C4 / Ligand-pharmacophore element distance, pharmacophore element C5 / Ligand-pharmacophore element distance, pharmacophore element C6 / Ligand-pharmacophore element distance, pharmacophore element C7 / Ligand-pharmacophore element distance, pharmacophore element CA1 / Ligand-pharmacophore element distance, pharmacophore element CA2 / Ligand-pharmacophore element distance, pharmacophore element CA3 / Ligand-pharmacophore element distance, pharmacophore element CA4 / Ligand-pharmacophore element distance, pharmacophore element CA5 / Ligand-pharmacophore element distance, pharmacophore element CA6: Table A4-1; for Pharmacophore protein distance to MET_658 (first MET_658 column) / Pharmacophore protein distance to MET_658 (second MET_658 column) / Pharmacophore protein distance to GLY_528 / Pharmacophore protein distance to PHE_529 / Pharmacophore protein distance to PRO_608 / Pharmacophore protein distance to SER_611 / Pharmacophore protein distance to TRP_655: Table A8-6, nearest protein atom in cell to the left; for Pharmacophore protein distance to MET_658 (first MET_658 column): 6th residue column; for Pharmacophore protein distance to MET_658 (second MET_658 column): 9th residue column; for Pharmacophore protein distance to TRP_655: pharmacophore elements C6, CA3, O3, H1
# Excerpt: This example illustrates the preparation of recombinant MASP-2 protein, based on UniProt O00187, human mannan-binding lectin serine protease 2. Expression constructs for human MASP-2 CCP2-SP and CCP2-SP-6HIS were generated for recombinant expression in E. coli cells.
# Typically, crystallization hits were obtained by screening against […] 96-well crystallization reagent kits (GRAS6, GRAS2, Hampton Research; MORPHEUS, Molecular Dimensions; Wizard 1&2 Cryo, Rigaku Reagents) and crystal growth was inspected by optical microscopy. Crystals were used directly or further optimized for X-ray diffraction. Crystals were captured with cryogenic loops and dipped into liquid nitrogen directly or cryoprotected with a 20% glycerol in crystallization formulation before flash-cooling in liquid nitrogen.
# Thereafter crystals are transferred once or twice for soaking within the crystallization solution containing the MASP-2 inhibitor.
# Crystals were diffracted with synchrotron X-rays of […] and X-ray diffraction datasets were collected at beamlines SSRL BL9-2, BL14-1, BL12-2 as well as ALS sector 5 using Dectris Pilatus and Eiger detectors. Structures were determined by molecular replacement using portions of the structure 1Q3X as search models and partially refined with Buster 2.10.2 or Refmac 5.8. […] When multiple ligand poses were observed, for instance arising from multiple molecules in the asymmetric unit or refined dual poses within the same molecule, only one pose was selected and analyzed.
# LigPlot+ calls these ‘nonbonded contacts’ or ‘hydrophobic contacts’. Despite the name, there are atom pairings that include possible H-bonds. Thus, in some instances, the Table A2 also contains H-bond interactions.
# [1] = Table A5-1 pharmacophore: distance between elements, S2/S1 region
# [2] = Table A5-2 pharmacophore distance, S3/S4 region
# [3] = Table A7-1, between pharmacophore elements of the bound compound
# [4] = Table A7-2, between pharmacophore elements of the bound compound
# Sequence of MASP-2 CCP2-SP (O00187 445-686): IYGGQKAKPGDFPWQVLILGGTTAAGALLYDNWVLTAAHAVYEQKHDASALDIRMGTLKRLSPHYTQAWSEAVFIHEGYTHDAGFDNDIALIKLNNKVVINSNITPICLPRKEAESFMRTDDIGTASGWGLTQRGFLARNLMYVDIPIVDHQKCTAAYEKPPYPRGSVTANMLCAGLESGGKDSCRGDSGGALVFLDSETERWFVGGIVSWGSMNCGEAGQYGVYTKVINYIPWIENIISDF
# Sequence of MASP-2 CCP2-SP (O00187 364-432 partner): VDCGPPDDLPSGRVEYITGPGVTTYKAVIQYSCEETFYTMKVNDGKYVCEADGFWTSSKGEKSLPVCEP
smiles,measurement,setting,value
C[C@H](NC(=O)[C@H](N)CCc1ccccc1)C(=O)NCc1ccc(N)nc1.Cl.Cl [1007_1],"Ligand-pharmacophore element distance, pharmacophore element C2",,0
same,"Ligand-pharmacophore element distance, pharmacophore element C3",,0
same,"Ligand-pharmacophore element distance, pharmacophore element C4",,0
same,"Ligand-pharmacophore element distance, pharmacophore element C5",,0
same,"Ligand-pharmacophore element distance, pharmacophore element C6",,0
same,"Ligand-pharmacophore element distance, pharmacophore element C7",,0
same,"Ligand-pharmacophore element distance, pharmacophore element CA1",,0.35
same,"Ligand-pharmacophore element distance, pharmacophore element CA2",,0.77
same,"Ligand-pharmacophore element distance, pharmacophore element CA3",,0
same,"Ligand-pharmacophore element distance, pharmacophore element CA4",,0
same,"Ligand-pharmacophore element distance, pharmacophore element CA5",,0
same,"Ligand-pharmacophore element distance, pharmacophore element CA6",,0
same,"d(CA1,N1)2",[1],1.38
same,"d(CA1,O1)",[1],4.39
same,"d(CA1,O2)",[1],3.86
same,"d(H4,O1)",[1],3.59
same,"d(H4,O2)",[1],2.73
same,"d(O1,O2)",[1],3.55
same,"d(N2,CA2)",[2],6.02
same,"d(O2,H3)",[2],4.41
same,"d(O2,N2)",[2],2.79
same,"a(CA1, O1, O2)",Table A6-1 pharmacophore angle,107.37
same,"a(O1, O2, H4)",Table A6-1 pharmacophore angle,113.31
same,"a(N1, CA1, O1) b)","Table A6-1 pharmacophore angle, Methyl-amino-pyridine compounds",174.46
same,"a(O1, O2, H3)",Table A6-2 pharmacophore angle,146.43
same,"a(O1, O2, N2)",Table A6-2 pharmacophore angle,138.95
same,"a(O2, N2, CA2)",Table A6-2 pharmacophore angle,154.71
same,"Pharmacophore torsion angle a(H4, O1, O2, H3)",[3],50.93
same,"Pharmacophore torsion angle a(H4, O1, O2, N2)",[3],137.94
same,"Pharmacophore torsion angle a(N1, CA1, O1, H4)",[3],39.07
same,"Pharmacophore torsion angle a(O1, H4, O2, CA1)",[3],−94.99
same,"Pharmacophore torsion angle a(O1, O2, N2, CA2)",[4],128.23
same,Pharmacophore protein distance to MET_658 (first MET_658 column),,2.61
same,Pharmacophore protein distance to MET_658 (second MET_658 column),,3.25
same,Pharmacophore protein distance to GLY_528,,3.76
same,Pharmacophore protein distance to PHE_529,,3.15
same,Pharmacophore protein distance to PRO_608,,3.15
same,Pharmacophore protein distance to SER_611,,2.06
same,Pharmacophore protein distance to TRP_655,,3.70
C[C@H](NC(=O)[C@H]1C[C@@H](c2ccccc2)CN1)C(=O)NCc1ccc2c(N)nccc2c1.Cl.Cl [1089_B],"Ligand-pharmacophore element distance, pharmacophore element C2",,0
same,"Ligand-pharmacophore element distance, pharmacophore element C3",,0
same,"Ligand-pharmacophore element distance, pharmacophore element C4",,0
same,"Ligand-pharmacophore element distance, pharmacophore element C5",,0
same,"Ligand-pharmacophore element distance, pharmacophore element C6",,0
same,"Ligand-pharmacophore element distance, pharmacophore element C7",,0
same,"Ligand-pharmacophore element distance, pharmacophore element CA1",,0.99
same,"Ligand-pharmacophore element distance, pharmacophore element CA2",,0
same,"Ligand-pharmacophore element distance, pharmacophore element CA3",,0
same,"Ligand-pharmacophore element distance, pharmacophore element CA4",,0
same,"Ligand-pharmacophore element distance, pharmacophore element CA5",,1.16
same,"Ligand-pharmacophore element distance, pharmacophore element CA6",,0
same,"d(CA1,O1)",[1],5.68
same,"d(CA1,O2)",[1],5.17
same,"d(H4,O1)",[1],3.14
same,"d(H4,O2)",[1],3.69
same,"d(O1,O2)",[1],3.33
same,"d(CA5,N2)",[2],5.10
same,"d(O2,H3)",[2],5.91
same,"d(O2,N2)",[2],2.70
same,"a(CA1, O1, O2)",Table A6-1 pharmacophore angle,99.20
same,"a(O1, O2, H4)",Table A6-1 pharmacophore angle,122.31
same,"a(O1, O2, H3)",Table A6-2 pharmacophore angle,152.83
same,"a(O1, O2, N2)",Table A6-2 pharmacophore angle,141.07
same,"Pharmacophore torsion angle a(H4, O1, O2, H3)",[3],89.27
same,"Pharmacophore torsion angle a(H4, O1, O2, N2)",[3],−178.39
same,"Pharmacophore torsion angle a(O1, H4, O2, CA1)",[3],−94.63
same,"Pharmacophore torsion angle a(O1, O2, N2, CA5)",[4],133.38
same,Pharmacophore protein distance to MET_658 (first MET_658 column),,2.61
same,Pharmacophore protein distance to MET_658 (second MET_658 column),,3.31
same,Pharmacophore protein distance to GLY_528,,3.59
same,Pharmacophore protein distance to PHE_529,,2.81
same,Pharmacophore protein distance to PRO_608,,3.90
same,Pharmacophore protein distance to SER_611,,2.79
same,Pharmacophore protein distance to TRP_655,,3.57
C[C@H](NC(=O)[C@H](N)CCCc1ccccc1)C(=O)NCc1ccc(C(=N)N)cc1 [compound 1042],H-bond distance to MASP-2 ASP 627 atom OD1,"Table A1 (H-Bonds), ASP 627 OD1",3.32
same,H-bond distance to MASP-2 GLY 656 atom O,"Table A1 (H-Bonds), GLY 656 O",2.34
same,H-bond distance to MASP-2 SER 628 atom O,"Table A1 (H-Bonds), SER 628 O",2.74
same,H-bond distance to MASP-2 SER 657 atom O,"Table A1 (H-Bonds), SER 657 O",2.65
same,"van der Waals contact distance, MASP-2 HIS 483 atom NE2",Table A2-1,3.56
same,"van der Waals contact distance, MASP-2 PHE 529 atom CZ",Table A2-3,3.57
same,"van der Waals contact distance, SER 654 C to compound atom",Table A2-11,3.36
same,"van der Waals contact distance, TRP 655 C to compound atom",Table A2-12,3.57
Cc1c(/N=C/c2ccc(OC(=O)c3ccco3)cc2)c(=O)n(-c2ccccc2)n1C [compound 34],van der Waals contact distance GLY 656 atom CA,"Table A2-13, MASP-2 GLY 656 CA",3.72
C[C@H](NC(=O)[C@@H](CCc1ccccc1)NCc1ccc(C(=O)N2CCOCC2)cc1)C(=O)NCc1ccc(C(=N)N)cc1.Cl.Cl [1153_B],"Ligand-pharmacophore element distance, pharmacophore element C2",,10.14
same,"Ligand-pharmacophore element distance, pharmacophore element C3",,0
same,"Ligand-pharmacophore element distance, pharmacophore element C4",,0
same,"Ligand-pharmacophore element distance, pharmacophore element C5",,0
same,"Ligand-pharmacophore element distance, pharmacophore element C6",,0
same,"Ligand-pharmacophore element distance, pharmacophore element C7",,0
same,"Ligand-pharmacophore element distance, pharmacophore element CA1",,0.39
same,"Ligand-pharmacophore element distance, pharmacophore element CA2",,0.58
same,"Ligand-pharmacophore element distance, pharmacophore element CA3",,0
same,"Ligand-pharmacophore element distance, pharmacophore element CA4",,0
same,"Ligand-pharmacophore element distance, pharmacophore element CA5",,6.17
same,"Ligand-pharmacophore element distance, pharmacophore element CA6",,0
same,"d(CA1,N1)",[1],3.54
same,"d(CA1,O1)",[1],5.51
same,"d(CA1,O2)",[1],8.18
same,"d(H4,O1)",[1],5.77
same,"d(H4,O2)",[1],7.90
same,"d(O1,O2)",[1],9.57
same,"d(CA5,N2)",[2],3.75
same,"d(N2,C2)",[2],8.53
same,"d(N2,CA2)",[2],5.06
same,"d(N2,O3)",[2],9.72
same,"d(O2,H3)",[2],3.10
same,"d(O2,N2)",[2],2.99
same,"a(CA1, O1, O2)",Table A6-1 pharmacophore angle,144.91
same,"a(O1, O2, H4)",Table A6-1 pharmacophore angle,92.62
same,"A(N1, CA1, O1) a)","Table A6-1 pharmacophore angle, all compounds with protonatable center N1 except Methyl-amino-pyridine",171.50
same,"a(O1, O2, H3)",Table A6-2 pharmacophore angle,25.95
same,"a(O1, O2, N2)",Table A6-2 pharmacophore angle,44.76
same,"a(O2, N2, C2)",Table A6-2 pharmacophore angle,163.28
same,"a(O2, N2, CA2)",Table A6-2 pharmacophore angle,150.51
same,"a(O2, N2, O3)",Table A6-2 pharmacophore angle,165.3
same,"Pharmacophore torsion angle a(H4, O1, O2, H3)",[3],70.64
same,"Pharmacophore torsion angle a(H4, O1, O2, N2)",[3],133.70
same,"Pharmacophore torsion angle a(N1, CA1, O2, H4)",[3],56.56
same,"Pharmacophore torsion angle a(O1, H4, O2, CA1)",[3],23.08
same,"Pharmacophore torsion angle a(O1, O2, N2, C2)",[3],−139.94
same,"Pharmacophore torsion angle a(O1, O2, N2, CA2)",[4],76.90
same,"Pharmacophore torsion angle a(O1, O2, N2, CA5)",[4],−161.98
same,"Pharmacophore torsion angle a(O1, O2, N2, O3)",[4],−144.09
same,Pharmacophore protein distance to MET_658 (first MET_658 column),,2.53
same,Pharmacophore protein distance to MET_658 (second MET_658 column),,3.26
same,Pharmacophore protein distance to GLY_528,,3.41
same,Pharmacophore protein distance to PHE_529,,3.23
same,Pharmacophore protein distance to PRO_608,,4.41
same,Pharmacophore protein distance to SER_611,,2.46
same,Pharmacophore protein distance to TRP_655,,3.42
